1 substance from US20250352608A1, “POLYPEPTIDES HAVING ANTI-INFLAMMATORY EFFECTS AND USES THEREOF” (OneSkin, Inc., priority 2020, published 2025) can be followed below.

Test [1] relates to peripheral blood mononuclear cells (PBMCs). The test can be described thus: PBMC proliferation with PHA activation (MTT). The test is classed as cell-based, human. The conditions noted are these: single agent, 5 days (Peptide 14 3.12 μM; rapamycin 100 nM; PHA 5 μg/mL). As for the experimental part:
The effect of Peptide 14 on T cell activation was assessed by treating PBMCs stimulated with phytohaemagglutinin (PHA) with Peptide 14. PHA usually can trigger lymphocyte activation and cell division. PBMCs that were untreated with PHA or Peptide 14 served as negative control of lymphocyte activation. In the phytohaemagglutinin group, the PBMCs were activated with 5 μg/mL of PHA for 5 days. In the Peptide 14 and PHA group, the PBMCs were activated with 5 μg/mL of PHA and treated with 3.12 μM of Peptide 14 for 5 days. In the Peptide 14 group, the PBMCs were treated with 3.12 μM of Peptide 14 for 5 days. In the rapamycin group, the PBMCs were treated with 100 nM of rapamycin, a well-known immunosuppressive drug for 5 days. In the rapamycin+PHA group, the PBMCs were activated with 5 μg/mL of PHA and treated with 100 nM of rapamycin for 5 days. The viability and proliferation of PBMCs were analyzed by MTT assay. Briefly, after 5 days of treatment, the cells were incubated with […] MTT reagent for 4 hours. Then, 100 μL of DMSO was added into each well, and the absorbance was detected at 595 nm.

Test [2] shares this test system. The test can be described thus: PBMC mRNA of IFN-γ and IL-10 (RT-qPCR). The test is classed as cell-based, human. The conditions noted are these: single agent, 5 days (Peptide 14 3.12 μM; rapamycin 100 nM; PHA 5 μg/mL). As for the experimental part: The effect of Peptide 14 on T cell activation was assessed by treating PBMCs stimulated with phytohaemagglutinin (PHA) with Peptide 14. PHA usually can trigger lymphocyte activation and cell division. PBMCs that were untreated with PHA or Peptide 14 served as negative control of lymphocyte activation. In the phytohaemagglutinin group, the PBMCs were activated with 5 μg/mL of PHA for 5 days. In the Peptide 14 and PHA group, the PBMCs were activated with 5 μg/mL of PHA and treated with 3.12 μM of Peptide 14 for 5 days. In the Peptide 14 group, the PBMCs were treated with 3.12 μM of Peptide 14 for 5 days. In the rapamycin group, the PBMCs were treated with 100 nM of rapamycin, a well-known immunosuppressive drug for 5 days. In the rapamycin+PHA group, the PBMCs were activated with 5 μg/mL of PHA and treated with 100 nM of rapamycin for 5 days. […] IFN-γ is typically produced in lymphocytes stimulated by PHA and may be used as marker of PBMC stimulation level. IL-10 is an anti-inflammatory cytokine. The cells from each of the experimental groups were processed for total RNA isolation, reverse transcription of the RNA and RT-qPCR. Data is represented as relative expression normalized to ubiquitous gene expression and untreated PBMC negative control.
Background: In qPCR the cycle at which signal appears reflects the starting amount.

Turning to phytohaemagglutinin [PHA], the “relative PBMC proliferation, % of negative control” value in test [1] is “about 130%”. In test [2], the “relative expression level of IFN-γ vs negative control” value is recorded as “about 15 fold” and the “relative expression level of IL-10 (negative control = 1)” value is listed as “near zero”.
